Data from ChEMBL document CHEMBL1158000, “Geniculol, a new biologically active diterpene from the endophytic fungus geniculosporium sp.1” (1999).

Legend:
[1] = test system: [Chlorella] fusca; assay: Antialgal activity against Chlorella fusca at 50 ug by agar diffusion test; type: functional; conditions: Scenedesmus fuscus; read-out: IZ
[2] = test system: [Chlorella] fusca; assay: Reduction of photosynthetic activity in green alga Chlorella fusca assessed as production of oxygen per hour at 0.2 mg/mL; type: functional, Scenedesmus fuscus; design: scale not given: the % may be the effect or the level left

| SMILES | zone of inhibition at 50 µg/disc [1] | Activity [2] |
| --- | --- | --- |
| C[C@]12CCC(=O)O[C@H]1C1=C[C@H]3OC(=O)[C@@]4(C)CCC[C@@](C)([C@@H]34)[C@]1(O)[C@H]2O [GENICULOL] | 2 mm | – |
| C[C@H]1C/C=C/[C@H]2[C@@H]3O[C@]3(C)[C@@H](C)[C@H]3[C@H](Cc4ccccc4)NC(=O)[C@]32OC(=O)/C=C/[C@@H](O)CCC1 [CYTOCHALASIN F] | 1 mm | 94.1% |
